Test results reported in patent US20130296370A1, “COMPOSITION COMPRISING A PHOTOACTIVATABLE LARVICIDE” (UNIVERSITA DEGLI STUDI DI PADOVA, priority 2010, published 2013).

How the values were obtained:
Format in all cases: in vivo
[1] = test system: 3rd-4th instar Ae. aegypti larvae; assay: Larvicidal efficacy of C14 porphyrin (LC50); details: 6 mg PFP
Description: Irradiation of mosquito larvae were performed by employing full spectrum visible light (400-800 nm) at a fluence rate of 1.0 to 4.0 mW/cm^2 using low-pressure mercury discharge fluorescent tubes TL-D Standard Colours (TL-D 58W/33-640 1SL, PHILIPS, EC). The intensity of the incident radiation was measured by an ILT1400A radiometer/photometer, equipped with a SED623/HNK15 multi-junction thermopile detector (International Light Technologies Inc., MA, USA).
(§1) All the experiments were carried out in a climatic chamber at 28±2° C. with a regulated photoperiod of 12 hours. Transparent plastic trays, containing 500 ml C14 solutions or spring water were employed. Typically, 5±1 days old, 3rd-early 4th instar Aedes aegypti larvae were used. All the experiments were replicated three times.
Mortality data were analyzed by ANOVA and LSD post-hoc tests using SPSS v. 11.0 (SPSS Inc.). LC50 values and relevant statistics were obtained by nonlinear regression of mortality data, using OriginPro v. 7.5 (OriginLab Corp.).
Trays containing C14 porphyrin solutions at 7 increasing concentrations (range 0.03-4.3 μM), or spring water as a control, were provided with 6 mg of PFP each (wherein PFP means powdered food pellet (PFP) with final particle diameter of 5-500 μm diameter obtained by crushing a standard food pellet for laboratory rodents, namely 4RF18 GLP (Mucedola Srl, Italy) using an electric blender and then sieving at mesh diameter 500 μm) and then incubated in the dark for 48 hours. Batches of 100 larvae, fasted for the previous 24 hours, were introduced into the trays at 8.00 pm (beginning of the 12 hour-long dark period in the climatic chamber). Larval mortality was evaluated on the next day at 9 am (after 1 hour irradiation), 2 pm (6 hours irradiation) and 8 pm (12 hours irradiation). An additional mortality evaluation was performed on the following day at 8.00 am, after a further overnight incubation. Larvae not moving or not showing a normally vigorous escaping response at probing were defined as dead or dying, respectively, and counted together. Pupae occasionally formed during the experiment, which never exceeded 10% of the total number of larvae, were discarded and excluded from the evaluation.
C14 solutions were incubated with 6 mg PFP at 28±2° C. in the dark for 48 hours. Larvae (3rd-4th instar, n=100, 3 replicates) were introduced 12 hours before the start of the irradiation (fluence rate: 1.0-4.0 mW/cm^2).

Aedes aegypti = assay: Laboratory-scale tray larvicide test; details: carrier mouse food; 70 mg per tray; loading concentration 5 μM; fluorescent lamp
Description: Laboratory strains of Anopheles stephensi, M and S (Kisumu), chromosomal forms of An. gambiae, An. arabiensis and Aedes aegypti, as well as field-collected Anopheles spp. and Aedes spp. larvae were used. Laboratory mosquitoes were maintained at 28-30° C., >90% RH and a photoperiod of 12 h. Light intensity ranged between 0.5 mW/cm^2 (fluorescent lamp) and 185 mW/cm^2 (sunlight).
C12 or C14 porphyrin solutions at 5-100 μM concentrations were pre-incubated at room temperature in the darkness with 15-60 mg of carrier (either Eudragit or ground mouse food or cat food) for 4-12 hours under gentle shaking. After incubation the solutions were filtered, and the loaded carrier was dried at room temperature or in an oven (45° C.).
Batches of 60-100 L2, L3 or L4 larvae were introduced into the trays after sunset (or artificial light off). Larval mortality was evaluated the next day starting from 8.00 am, and the time required to reach at least 90% mortality was recorded. Larvae not moving or not showing an escaping response at probing were defined as dead or dying, and counted together (Tables 2 and 3). Pupae occasionally formed throughout the irradiation time were discarded and excluded from the evaluation. An equal number of batches of larvae prepared in the same way were kept in continuous darkness and mortality was evaluated similarly, to assess toxicity in the dark. […]

[2] = test system: Aedes aegypti 3rd-4th instar larvae; assay: Efficacy and residual activity of photolarvicidal formulations; details: for % mortality by incubation time: 12 h irradiation
Description: To assess the effect of different C14 loading concentrations on the photolarvicidal activity of the C14-PFP complexes, two photolarvicidal formulates were prepared. The formulates, named C14 PF-5 and C14 PF-50, were obtained by incubating overnight at room temperature under gentle shaking 25 mg of PFP in 500 ml of 5 μM and 50 μM aqueous solutions of C14, respectively. The solutions were filtered using Whatman qualitative filter papers (Whatman International Ltd., UK) and the solid residues, consisting in the C14-PFP complexes, were washed with 10 ml distilled water, oven-dried at 37° C. for 4 hours and stored at room temperature until use. To quantify the amount of bound C14, samples of the two C14-PFP formulates were dissolved in 3 ml of 2% SDS for 2 h under gentle magnetic stirring. The extracted porphyrin was then quantified by spectrophotometric analysis as described above.
as §1
Five series of trays were prepared, namely 0.3 μM and 5 μM C14 porphyrin solutions containing 6 mg PFP (wherein PFP means powdered food pellet (PFP) with final particle diameter of 5-500 μm diameter obtained by crushing a standard food pellet for laboratory rodents, namely 4RF18 GLP (Mucedola Srl, Italy) using an electric blender and then sieving at mesh diameter 500 μm); spring water containing 6 mg C14 PF-5 or C14 PF-50 formulate (wherein C14 PF-5 and C14 PF-50, were obtained by incubating overnight at room temperature under gentle shaking 25 mg of PFP in 500 ml of 5 μM and 50 μM aqueous solutions of C14, respectively) and spring water containing 6 mg PFP as a control. Each series was arranged into three groups, which were incubated at a 12 hour photoperiod for 48 hours, one, or two weeks, respectively. At the end of the incubation periods, batches of 100 larvae, having fasted for 24 hours, were introduced into the trays, at 8 pm (beginning of the 12 h-long dark period in the climatic chamber). Larval mortality was evaluated after 12 hours (next day at 8.00 pm) of irradiation.

CCCCCCCCCCCCCC[n+]1ccc(-c2c3nc(c(-c4cc[n+](C)cc4)c4ccc([nH]4)c(-c4cc[n+](C)cc4)c4nc(c(-c5cc[n+](C)cc5)c5ccc2[nH]5)C=C4)C=C3)cc1.Cc1ccc(S(=O)(=O)[O-])cc1.Cc1ccc(S(=O)(=O)[O-])cc1.Cc1ccc(S(=O)(=O)[O-])cc1.Cc1ccc(S(=O)(=O)[O-])cc1 [C14, meso-tri(N-methyl-pyridyl), mono(N-tetradecyl-pyridyl)porphine]
LC50 ([1]; 12 light + 12 dark hours): 110 nM
LC50 ([1]; 1 hour of irradiation, 1.0-4.0 mW/cm^2): 460 nM
LC50 ([1]; 6 hours of irradiation, 1.0-4.0 mW/cm^2): 250 nM
LC50 ([1]; 12 hours of irradiation, 1.0-4.0 mW/cm^2): 220 nM
Time to reach ≧90% mortality (Aedes aegypti): 3 h
% mortality by incubation time ([2]; 0.3 μM C14 solution with 6 mg untreated larval food, trays incubated 1 week): 100%
% mortality by incubation time ([2]; 0.3 μM C14 solution with 6 mg untreated larval food, trays incubated 2 weeks): 0%
% mortality by incubation time ([2]; 0.3 μM C14 solution with 6 mg untreated larval food, trays incubated 48 hours): 100%
residual activity ([2]; 0.3 μM solutions in water containing 6 mg untreated PFP): 1 week
% mortality by incubation time ([2]; 5 μM C14 solution with 6 mg untreated larval food, trays incubated 1 week): 100%
% mortality by incubation time ([2]; 5 μM C14 solution with 6 mg untreated larval food, trays incubated 2 weeks): 100%
% mortality by incubation time ([2]; 5 μM C14 solution with 6 mg untreated larval food, trays incubated 48 hours): 100%
residual activity ([2]; 5 μM solutions in water containing 6 mg untreated PFP): two weeks
